In patent US12139520B2 (priority 2020, dated 2024):
Bridge positions count the residues as written; N and C are the ends. Square brackets hold non-standard residues; d marks the D form. Peptide text beside a SMILES is read from it. Hyp = O=C(O)[C@@H]1C[C@@H](O)CN1; Cit = NC(=O)NCCC[C@H](N)C(=O)O

Tests used:
[1] = biological target: T1, hAMY3 receptor (Homo sapiens, UniProt O60896+P30988); assay: cAMP assay for in vitro receptor activation, hAMY3-R; format: cell-based; conditions: cAMP assay, hAMY3 receptor; read-out: hAMY3R EC50
T1 sequence (P30988 25-474): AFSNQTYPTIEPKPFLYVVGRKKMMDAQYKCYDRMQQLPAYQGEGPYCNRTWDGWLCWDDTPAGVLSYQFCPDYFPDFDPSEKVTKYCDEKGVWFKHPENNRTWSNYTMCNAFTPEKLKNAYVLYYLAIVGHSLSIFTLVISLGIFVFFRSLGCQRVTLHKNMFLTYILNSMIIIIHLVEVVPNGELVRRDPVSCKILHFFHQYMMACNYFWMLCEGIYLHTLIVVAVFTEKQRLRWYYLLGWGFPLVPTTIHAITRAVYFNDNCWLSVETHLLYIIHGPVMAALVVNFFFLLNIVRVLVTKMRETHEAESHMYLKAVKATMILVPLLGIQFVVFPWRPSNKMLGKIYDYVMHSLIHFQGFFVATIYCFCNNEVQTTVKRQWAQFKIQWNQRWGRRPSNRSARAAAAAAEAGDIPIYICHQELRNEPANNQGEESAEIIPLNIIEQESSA
T1 sequence (O60896 24-148 partner): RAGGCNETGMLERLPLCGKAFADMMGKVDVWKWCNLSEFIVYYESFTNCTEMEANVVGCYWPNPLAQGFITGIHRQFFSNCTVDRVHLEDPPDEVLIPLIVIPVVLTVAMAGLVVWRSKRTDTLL
Procedure, shortened: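 Receptor activation was measured as cAMP accumulation in a monoclonal cell line stably overexpressing hAMY3. Stimulation with graded doses lasted 30 min at room temperature in the presence of 0.5 mM IBMX, with human amylin as positive control.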

[2] = Physical stability of peptide analogues (Thioflavin T fibrillation); format: physicochemical; conditions: maximum ThT signal normalized between hAMY maximum and buffer background; 40° C., shaking, four days; pH 7 per table title
Procedure, shortened: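 Peptides in 50 mM sodium acetate pH 4 or 50 mM sodium phosphate pH 7 were preincubated 1 h, mixed with 4 μM ThT, held at 40° C with 700 rpm shaking before each read. Fluorescence (ex 450/em 480 nm) every 10 min for four days; LOESS-smoothed maximum signal normalized in percent between hAMY and buffer.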

Row | SMILES | EC50 [1] | Max ThT signal (%) [2]
1 | CC[C@H](C)[C@H](NC(=O)[C@H](CCC(N)=O)NC(=O)[C@H](Cc1c[nH]cn1)NC(=O)[C@H](C)NC(=O)[C@H](CC(C)C)NC(=O)[C@H](CCCNC(=N)N)NC(=O)[C@H](CCC(N)=O)NC(=O)[C@@H](NC(=O)[C@@H](NC(=O)[C@@H]1CSSC[C@H](NC(=O)CN)C(=O)N[C@@H](CCCNC(=N)N)C(=O)N[C@@H](Cc2ccccc2)C(=O)NCC(=O)N[C@@H]([C@@H](C)O)C(=O)N1)[C@@H](C)O)C(C)C)C(=O)N[C@@H](Cc1ccc(O)cc1)C(=O)N[C@@H](CCC(N)=O)C(=O)N[C@@H](Cc1ccccc1)C(=O)N[C@H](C(=O)N[C@@H](CC(=O)O)C(=O)N[C@@H](CCCCN)C(=O)N[C@@H](CC(=O)O)C(=O)N[C@@H](CCCCN)C(=O)N[C@@H](CC(=O)O)C(=O)N[C@@H](CC(N)=O)C(=O)N[C@H](C(=O)N[C@@H](C)C(=O)N1CCC[C@H]1C(=O)N[C@@H](CCCNC(=N)N)C(=O)N[C@H](C(=O)N[C@@H](CCCCN)C(=O)N[C@H](C(=O)N[C@@H](CO)C(=O)N1CCC[C@H]1C(=O)N[C@@H](CC(N)=O)C(=O)NCC(=O)N1C[C@H](O)C[C@H]1C(N)=O)[C@@H](C)CC)[C@@H](C)O)C(C)C)[C@@H](C)O [compound 113] (H-GCRFGTCTVQRLAHQIYQFTDKDKDNVAPRTKISPNG[Hyp]-NH2; disulfide 2-7; N-terminus assumed) | 0.022 nM | 14.700%
2 | CC[C@H](C)[C@@H]1NC(=O)[C@H](CCCNC(=N)N)NC(=O)[C@@H](NC(=O)CN)CSSC[C@@H](C(=O)N[C@H](C(=O)N[C@H](C(=O)N[C@@H](CCC(N)=O)C(=O)N[C@@H](CCCNC(=N)N)C(=O)N[C@@H](CC(C)C)C(=O)N[C@@H](C)C(=O)N[C@@H](Cc2c[nH]cn2)C(=O)N[C@@H](CCC(N)=O)C(=O)N[C@H](C(=O)N[C@@H](Cc2ccc(O)cc2)C(=O)N[C@@H](CCC(N)=O)C(=O)N[C@@H](Cc2ccccc2)C(=O)N[C@H](C(=O)N[C@@H](CC(=O)O)C(=O)N[C@@H](CCCCN)C(=O)N[C@@H](Cc2ccccc2)C(=O)N[C@@H](CCCCN)C(=O)N[C@@H](CC(=O)O)C(=O)N[C@@H](CC(N)=O)C(=O)N[C@H](C(=O)N[C@@H](C)C(=O)N2CCC[C@H]2C(=O)N[C@@H](CCCNC(=N)N)C(=O)N[C@@H](CO)C(=O)N[C@@H](CCCCN)C(=O)N[C@H](C(=O)N[C@@H](CO)C(=O)N2CCC[C@H]2C(=O)N[C@@H](CCC(N)=O)C(=O)N[C@H](C(=O)N2C[C@H](O)C[C@H]2C(N)=O)[C@@H](C)O)[C@@H](C)CC)C(C)C)[C@@H](C)O)[C@@H](C)CC)C(C)C)[C@@H](C)O)NC(=O)[C@H]([C@@H](C)O)NC(=O)CNC1=O [compound 147] (H-GCRIGTCTVQRLAHQIYQFTDKFKDNVAPRSKISPQT[Hyp]-NH2; disulfide 2-7; N-terminus assumed) | 0.04 nM | 5.100%
3 | CC[C@H](C)[C@H](NC(=O)[C@H](CCC(N)=O)NC(=O)[C@H](Cc1c[nH]cn1)NC(=O)[C@H](C)NC(=O)[C@H](CC(C)C)NC(=O)[C@H](CCCNC(N)=O)NC(=O)[C@H](CCC(N)=O)NC(=O)[C@@H](NC(=O)[C@@H](NC(=O)[C@@H]1CSSC[C@H](NC(=O)CN)C(=O)N[C@@H](CCCNC(=N)N)C(=O)N[C@@H](Cc2ccccc2)C(=O)NCC(=O)N[C@@H]([C@@H](C)O)C(=O)N1)[C@@H](C)O)C(C)C)C(=O)N[C@@H](Cc1ccc(O)cc1)C(=O)N[C@@H](CCC(N)=O)C(=O)N[C@@H](Cc1ccccc1)C(=O)N[C@H](C(=O)N[C@@H](CC(=O)O)C(=O)N[C@@H](CCCCN)C(=O)N[C@@H](CC(=O)O)C(=O)N[C@@H](CCCCN)C(=O)N[C@@H](CC(=O)O)C(=O)N[C@@H](CC(N)=O)C(=O)N[C@H](C(=O)N[C@@H](C)C(=O)N1CCC[C@H]1C(=O)N[C@@H](CCCNC(=N)N)C(=O)N[C@H](C(=O)N[C@@H](CC(N)=O)C(=O)N[C@H](C(=O)NCC(=O)N1CCC[C@H]1C(=O)N[C@@H](CCC(N)=O)C(=O)NCC(=O)N1C[C@H](O)C[C@H]1C(N)=O)C(C)C)[C@@H](C)O)C(C)C)[C@@H](C)O [compound 267] (H-GCRFGTCTVQ[Cit]LAHQIYQFTDKDKDNVAPRTNVGPQG[Hyp]-NH2; disulfide 2-7; N-terminus assumed) | 0.007 nM | 30.900%

Next, values leading:

Row | EC50 [1] | Max ThT signal (%) [2] | SMILES
4 | 0.01 nM | 10.850% | CC[C@H](C)[C@H](NC(=O)[C@H](CCC(N)=O)NC(=O)[C@H](Cc1c[nH]cn1)NC(=O)[C@H](C)NC(=O)[C@H](CC(C)C)NC(=O)[C@H](CCCNC(N)=O)NC(=O)[C@H](CCC(N)=O)NC(=O)[C@@H](NC(=O)[C@@H](NC(=O)[C@@H]1CSSC[C@H](NC(=O)CN)C(=O)N[C@@H](CCCNC(=N)N)C(=O)N[C@@H](Cc2ccccc2)C(=O)NCC(=O)N[C@@H]([C@@H](C)O)C(=O)N1)[C@@H](C)O)C(C)C)C(=O)N[C@@H](Cc1ccc(O)cc1)C(=O)N[C@@H](CCC(N)=O)C(=O)N[C@@H](Cc1ccccc1)C(=O)N[C@H](C(=O)N[C@@H](CC(=O)O)C(=O)N[C@@H](CCCCN)C(=O)N[C@@H](CC(=O)O)C(=O)N[C@@H](CCCCN)C(=O)N[C@@H](CC(=O)O)C(=O)N[C@@H](CC(N)=O)C(=O)N[C@H](C(=O)N[C@@H](C)C(=O)N1CCC[C@H]1C(=O)N[C@@H](CCCNC(=N)N)C(=O)N[C@H](C(=O)N[C@@H](CC(N)=O)C(=O)N[C@H](C(=O)N[C@@H](CO)C(=O)N1CCC[C@H]1C(=O)N[C@@H](CC(N)=O)C(=O)NCC(=O)N[C@@H](Cc1ccc(O)cc1)C(N)=O)C(C)C)[C@@H](C)O)C(C)C)[C@@H](C)O [compound 271] (H-GCRFGTCTVQ[Cit]LAHQIYQFTDKDKDNVAPRTNVSPNGY-NH2; disulfide 2-7; N-terminus assumed)
5 | 0.02 nM | 18.000% | CC[C@H](C)[C@H](NC(=O)[C@H](CCC(N)=O)NC(=O)[C@H](Cc1c[nH]cn1)NC(=O)[C@H](C)NC(=O)[C@H](CC(C)C)NC(=O)[C@H](CCCNC(=N)N)NC(=O)[C@H](CCC(N)=O)NC(=O)[C@@H](NC(=O)[C@@H](NC(=O)[C@@H]1CSSC[C@H](NC(=O)CN)C(=O)N[C@@H](CCCNC(=N)N)C(=O)N[C@@H](Cc2ccccc2)C(=O)NCC(=O)N[C@@H]([C@@H](C)O)C(=O)N1)[C@@H](C)O)C(C)C)C(=O)N[C@@H](Cc1ccc(O)cc1)C(=O)N[C@@H](CCC(N)=O)C(=O)N[C@@H](Cc1ccccc1)C(=O)N[C@H](C(=O)N[C@@H](CC(=O)O)C(=O)N[C@@H](CCCCN)C(=O)N[C@@H](CC(=O)O)C(=O)N[C@@H](CCCCN)C(=O)N[C@@H](CC(=O)O)C(=O)N[C@@H](CC(N)=O)C(=O)N[C@H](C(=O)N[C@@H](C)C(=O)N1CCC[C@H]1C(=O)N[C@@H](CCCNC(=N)N)C(=O)N[C@@H](CO)C(=O)N[C@@H](CC(N)=O)C(=O)N[C@H](C(=O)NCC(=O)N1CCC[C@H]1C(=O)N[C@@H](CC(N)=O)C(=O)NCC(=O)N[C@@H](Cc1ccc(O)cc1)C(N)=O)C(C)C)C(C)C)[C@@H](C)O [compound 373] (H-GCRFGTCTVQRLAHQIYQFTDKDKDNVAPRSNVGPNGY-NH2; disulfide 2-7; N-terminus assumed)
6 | 0.017 nM | 12.600% | CC[C@H](C)[C@H](NC(=O)[C@H](CCC(N)=O)NC(=O)[C@H](Cc1c[nH]cn1)NC(=O)[C@H](C)NC(=O)[C@H](CC(C)C)NC(=O)[C@H](CCCNC(=N)N)NC(=O)[C@H](CCC(N)=O)NC(=O)[C@@H](NC(=O)[C@@H](NC(=O)[C@@H]1CSSC[C@H](NC(=O)CN)C(=O)N[C@@H](CCCNC(=N)N)C(=O)N[C@@H](Cc2ccccc2)C(=O)NCC(=O)N[C@@H]([C@@H](C)O)C(=O)N1)[C@@H](C)O)C(C)C)C(=O)N[C@@H](Cc1ccc(O)cc1)C(=O)N[C@@H](CCC(N)=O)C(=O)N[C@@H](Cc1ccccc1)C(=O)N[C@H](C(=O)N[C@@H](CC(=O)O)C(=O)N[C@@H](CCCCN)C(=O)N[C@@H](CC(=O)O)C(=O)N[C@@H](CCCCN)C(=O)N[C@@H](CC(=O)O)C(=O)N[C@@H](CC(N)=O)C(=O)N[C@H](C(=O)N[C@@H](C)C(=O)N1CCC[C@H]1C(=O)N[C@@H](CCCNC(=N)N)C(=O)N[C@H](C(=O)N[C@@H](CC(N)=O)C(=O)N[C@H](C(=O)N[C@@H](CO)C(=O)N1CCC[C@H]1C(=O)N[C@@H](CC(N)=O)C(=O)NCC(=O)N[C@@H](Cc1ccc(O)cc1)C(N)=O)C(C)C)[C@@H](C)O)C(C)C)[C@@H](C)O [compound 98] (H-GCRFGTCTVQRLAHQIYQFTDKDKDNVAPRTNVSPNGY-NH2; disulfide 2-7; N-terminus assumed)
